Test results reported in patent US20210045385A1, “PYRIDAZINONE-SUBSTITUTED KETOXIMES AS HERBICIDES” (FMC Corporation, priority 2018, published 2021).

Columns and labels:
Type in all cases: in vivo
[1] = system: Italian ryegrass (Lolium multiflorum); assay: Test A preemergence, visual plant response rating; settings: for Ryegrass, Italian plant response rating: 125 g ai/ha, preemergence, 0 to 100 scale, 0 no effect, 100 complete control; for Ryegrass, Italian plant response rating (0 to 100 scale): 500 g ai/ha Preemergence, approx. 10 days
In short: (§1)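 Greenhouse evaluation, approx. 10 days post-spray. Soil: loam + sand. Postemergence stage: 1–2 leaves, height 2–10 cm. Vehicle: non-phytotoxic solvent blend with surfactant. Score: visual injury on a 0 (no effect) to 100 (complete control) scale.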

[2] = system: barnyardgrass (Echinochloa crus-galli); assay: Test A preemergence, visual plant response rating; settings: for Barnyardgrass plant response rating: 125 g ai/ha, preemergence, 0 to 100 scale, 0 no effect, 100 complete control; for Barnyardgrass plant response rating (0 to 100 scale): 500 g ai/ha Preemergence, approx. 10 days
In short: as §1

[3] = system: foxtail, giant (giant foxtail, Setaria faberii); assay: Test A preemergence, visual plant response rating; settings: for Foxtail, Giant plant response rating: 125 g ai/ha, preemergence, 0 to 100 scale, 0 no effect, 100 complete control; for Foxtail, Giant plant response rating (0 to 100 scale): 500 g ai/ha Preemergence, approx. 10 days
In short: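 Greenhouse pot test in loam–sand soil mix: compound in a surfactant-containing non-phytotoxic solvent applied preemergence (directed soil spray) or postemergence (one- to two-leaf plants, 2–10 cm). Injury scored visually after ~10 days, 0–100.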

kochia (Kochia scoparia) [4] = assay: Test A preemergence, visual plant response rating; settings: for Kochia plant response rating: 125 g ai/ha, preemergence, 0 to 100 scale, 0 no effect, 100 complete control; for Kochia plant response rating (0 to 100 scale): 500 g ai/ha Preemergence, approx. 10 days
In short: as §1

[5] = system: pigweed (Amaranthus retroflexus); assay: Test A preemergence, visual plant response rating; settings: for Pigweed plant response rating: 125 g ai/ha, preemergence, 0 to 100 scale, 0 no effect, 100 complete control; for Pigweed plant response rating (0 to 100 scale): 500 g ai/ha Preemergence, approx. 10 days
In short: as §1

[6] = system: ragweed (common ragweed, Ambrosia elatior); assay: Test A preemergence, visual plant response rating; settings: for Ragweed plant response rating: 125 g ai/ha, preemergence, 0 to 100 scale, 0 no effect, 100 complete control; for Ragweed plant response rating (0 to 100 scale): 500 g ai/ha Preemergence, approx. 10 days
In short: as §1

[7] = system: Italian ryegrass (Lolium multiflorum); assay: Test A postemergence, visual plant response rating; settings: for Ryegrass, Italian plant response rating (0 to 100 scale): 500 g ai/ha, postemergence, 0 is no effect, 100 is complete control; for Ryegrass, Italian plant response rating: Postemergence, 125 g ai/ha, 0 to 100 scale (0 no effect, 100 complete control)
In short: as §1

[8] = system: barnyardgrass (Echinochloa crus-galli); assay: Test A postemergence, visual plant response rating; settings: for Barnyardgrass plant response rating (0 to 100 scale): 500 g ai/ha, postemergence, 0 is no effect, 100 is complete control; for Barnyardgrass plant response rating: Postemergence, 125 g ai/ha, 0 to 100 scale (0 no effect, 100 complete control)
In short: as §1

[9] = system: blackgrass (Alopecurus myosuroides); assay: Test A postemergence, visual plant response rating; settings: for Blackgrass plant response rating (0 to 100 scale): 500 g ai/ha, postemergence, 0 is no effect, 100 is complete control; for Blackgrass plant response rating: Postemergence, 125 g ai/ha, 0 to 100 scale (0 no effect, 100 complete control)
In short: as §1

corn (Zea mays) = assay: Test A postemergence, visual plant response rating; settings: for Corn plant response rating (0 to 100 scale): 500 g ai/ha, postemergence, 0 is no effect, 100 is complete control; for Corn plant response rating: Postemergence, 125 g ai/ha, 0 to 100 scale (0 no effect, 100 complete control)
In short: as §1

[10] = system: foxtail, giant (giant foxtail, Setaria faberii); assay: Test A postemergence, visual plant response rating; settings: for Foxtail, Giant plant response rating (0 to 100 scale): 500 g ai/ha, postemergence, 0 is no effect, 100 is complete control; for Foxtail, Giant plant response rating: Postemergence, 125 g ai/ha, 0 to 100 scale (0 no effect, 100 complete control)
In short: as §1

[11] = system: galium (catchweed bedstraw, Galium aparine); assay: Test A postemergence, visual plant response rating; settings: for Galium plant response rating (0 to 100 scale): 500 g ai/ha, postemergence, 0 is no effect, 100 is complete control; for Galium plant response rating: Postemergence, 125 g ai/ha, 0 to 100 scale (0 no effect, 100 complete control)
In short: as §1

kochia (Kochia scoparia) [12] = assay: Test A postemergence, visual plant response rating; settings: for Kochia plant response rating (0 to 100 scale): 500 g ai/ha, postemergence, 0 is no effect, 100 is complete control; for Kochia plant response rating: Postemergence, 125 g ai/ha, 0 to 100 scale (0 no effect, 100 complete control)
In short: as §1

[13] = system: pigweed (Amaranthus retroflexus); assay: Test A postemergence, visual plant response rating; settings: for Pigweed plant response rating (0 to 100 scale): 500 g ai/ha, postemergence, 0 is no effect, 100 is complete control; for Pigweed plant response rating: Postemergence, 125 g ai/ha, 0 to 100 scale (0 no effect, 100 complete control)
In short: as §1

[14] = system: ragweed (common ragweed, Ambrosia elatior); assay: Test A postemergence, visual plant response rating; settings: for Ragweed plant response rating (0 to 100 scale): 500 g ai/ha, postemergence, 0 is no effect, 100 is complete control; for Ragweed plant response rating: Postemergence, 125 g ai/ha, 0 to 100 scale (0 no effect, 100 complete control)
In short: as §1

[15] = system: wheat (Triticum aestivum); assay: Test A postemergence, visual plant response rating; settings: for Wheat plant response rating (0 to 100 scale): 500 g ai/ha, postemergence, 0 is no effect, 100 is complete control; for Wheat plant response rating: Postemergence, 125 g ai/ha, 0 to 100 scale (0 no effect, 100 complete control)
In short: as §1

[16] = system: barnyardgrass (Echinochloa crus-galli); assay: Test B flooded paddy test, visual plant response rating; settings: 250 g ai/ha, Flood, applied to paddy water, 2-leaf stage, evaluated after 13 to 15 days
In short: (§2)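 Visual scores compare treated plants with controls after 13 to 15 days of greenhouse growth. Treatment was made into paddy water standing 3 cm above the soil, with plants at the 2-leaf stage and flooding maintained throughout.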

[17] = system: ducksalad (Heteranhera limosa); assay: as above; settings: 250 g ai/ha, Flood, applied to paddy water, 2-leaf stage, evaluated after 13 to 15 days
In short: as §2

rice (Oryza sativa) = assay: as above; settings: 250 g ai/ha, Flood, applied to paddy water, 2-leaf stage, evaluated after 13 to 15 days
In short: as §2

[18] = system: sedge, umbrella (small-flower umbrella sedge, Cyperus difformis); assay: as above; settings: 250 g ai/ha, Flood, applied to paddy water, 2-leaf stage, evaluated after 13 to 15 days
In short: as §2

| SMILES | Ryegrass, Italian plant response rating [1] | Ryegrass, Italian plant response rating (0 to 100 scale) [1] | Barnyardgrass plant response rating [2] | Barnyardgrass plant response rating (0 to 100 scale) [2] | Foxtail, Giant plant response rating [3] | Foxtail, Giant plant response rating (0 to 100 scale) [3] | Kochia plant response rating (0 to 100 scale) (kochia (Kochia scoparia) [4]) | Pigweed plant response rating [5] | Pigweed plant response rating (0 to 100 scale) [5] | Ragweed plant response rating [6] | Ragweed plant response rating (0 to 100 scale) [6] | Ryegrass, Italian plant response rating (0 to 100 scale) [7] | Ryegrass, Italian plant response rating [7] | Barnyardgrass plant response rating (0 to 100 scale) [8] | Barnyardgrass plant response rating [8] | Blackgrass plant response rating (0 to 100 scale) [9] | Blackgrass plant response rating [9] | Corn plant response rating (0 to 100 scale) (corn (Zea mays)) | Corn plant response rating (corn (Zea mays)) | Foxtail, Giant plant response rating (0 to 100 scale) [10] | also measured |
| --- | --- | --- | --- | --- | --- | --- | --- | --- | --- | --- | --- | --- | --- | --- | --- | --- | --- | --- | --- | --- | --- |
| CCc1cccc(C(=NOC)c2c(O)c(C)nn(C)c2=O)c1 [Compound 36] | 30 | 50 | 10 | 20 | 0 | 50 | 50 | 10 | 30 | 10 | 70 | 50 | 30 | 0 | 0 | 20 | 10 | 0 | 20 | 10 | Kochia plant response rating (kochia (Kochia scoparia) [4]): 10; Foxtail, Giant plant response rating [10]: 0; Galium plant response rating (0 to 100 scale) [11]: 70; Galium plant response rating [11]: 50; Kochia plant response rating (0 to 100 scale) (kochia (Kochia scoparia) [12]): 70; Kochia plant response rating (kochia (Kochia scoparia) [12]): 60; Pigweed plant response rating (0 to 100 scale) [13]: 70; Pigweed plant response rating [13]: 20; Ragweed plant response rating (0 to 100 scale) [14]: 80; Ragweed plant response rating [14]: 70; Wheat plant response rating (0 to 100 scale) [15]: 0; Wheat plant response rating [15]: 0; Plant response rating, Barnyardgrass (0 to 100 scale, 0 is no effect, 100 is complete control) [16]: 0; Plant response rating, Ducksalad (0 to 100 scale, 0 is no effect, 100 is complete control) [17]: 0; Plant response rating, Rice (0 to 100 scale, 0 is no effect, 100 is complete control) (rice (Oryza sativa)): 0; Plant response rating, Sedge, Umbrella (0 to 100 scale, 0 is no effect, 100 is complete control) [18]: 0 |
| CCc1ccccc1/C(=N\OC)c1c(O)c(C)nn(C)c1=O [Compound 69] | 10 | 80 | 0 | 10 | 10 | 30 | 10 | 10 | 70 | 10 | 40 | 80 | 80 | 30 | 20 | 60 | 10 | 20 | 0 | 40 | Kochia plant response rating (kochia (Kochia scoparia) [4]): 0; Foxtail, Giant plant response rating [10]: 10; Galium plant response rating (0 to 100 scale) [11]: 80; Galium plant response rating [11]: 70; Kochia plant response rating (0 to 100 scale) (kochia (Kochia scoparia) [12]): 70; Kochia plant response rating (kochia (Kochia scoparia) [12]): 50; Pigweed plant response rating (0 to 100 scale) [13]: 70; Pigweed plant response rating [13]: 40; Ragweed plant response rating (0 to 100 scale) [14]: 70; Ragweed plant response rating [14]: 70; Wheat plant response rating (0 to 100 scale) [15]: 0; Wheat plant response rating [15]: 0; Plant response rating, Barnyardgrass (0 to 100 scale, 0 is no effect, 100 is complete control) [16]: 0; Plant response rating, Ducksalad (0 to 100 scale, 0 is no effect, 100 is complete control) [17]: 0; Plant response rating, Rice (0 to 100 scale, 0 is no effect, 100 is complete control) (rice (Oryza sativa)): 0; Plant response rating, Sedge, Umbrella (0 to 100 scale, 0 is no effect, 100 is complete control) [18]: 0 |
| CCO/N=C(\c1c(O)c(C)nn(C)c1=O)c1ccc(F)c2ccccc12 [Compound 85] | 100 | 100 | 70 | 90 | 80 | 100 | 50 | 100 | 100 | 90 | 100 | 100 | 90 | 80 | 50 | 100 | 90 | 30 | 10 | 80 | Kochia plant response rating (kochia (Kochia scoparia) [4]): 10; Foxtail, Giant plant response rating [10]: 70; Galium plant response rating (0 to 100 scale) [11]: 90; Galium plant response rating [11]: 80; Kochia plant response rating (0 to 100 scale) (kochia (Kochia scoparia) [12]): 90; Kochia plant response rating (kochia (Kochia scoparia) [12]): 70; Pigweed plant response rating (0 to 100 scale) [13]: 90; Pigweed plant response rating [13]: 80; Ragweed plant response rating (0 to 100 scale) [14]: 100; Ragweed plant response rating [14]: 90; Wheat plant response rating (0 to 100 scale) [15]: 50; Wheat plant response rating [15]: 40; Plant response rating, Barnyardgrass (0 to 100 scale, 0 is no effect, 100 is complete control) [16]: 0; Plant response rating, Ducksalad (0 to 100 scale, 0 is no effect, 100 is complete control) [17]: 0; Plant response rating, Rice (0 to 100 scale, 0 is no effect, 100 is complete control) (rice (Oryza sativa)): 0; Plant response rating, Sedge, Umbrella (0 to 100 scale, 0 is no effect, 100 is complete control) [18]: 0 |
| C=CCON=C(c1c(O)c(C)nn(C)c1=O)c1cc(Br)cc2ccccc12 [Compound 115] | 80 | 90 | 90 | 100 | 90 | 100 | 10 | 30 | 90 | 90 | 90 | 90 | 80 | 90 | 80 | 90 | 80 | 70 | 20 | 90 | Foxtail, Giant plant response rating [10]: 90; Galium plant response rating (0 to 100 scale) [11]: 100; Galium plant response rating [11]: 100; Kochia plant response rating (0 to 100 scale) (kochia (Kochia scoparia) [12]): 60; Kochia plant response rating (kochia (Kochia scoparia) [12]): 30; Pigweed plant response rating (0 to 100 scale) [13]: 90; Pigweed plant response rating [13]: 60; Ragweed plant response rating (0 to 100 scale) [14]: 100; Ragweed plant response rating [14]: 90; Wheat plant response rating (0 to 100 scale) [15]: 40; Wheat plant response rating [15]: 20; Plant response rating, Barnyardgrass (0 to 100 scale, 0 is no effect, 100 is complete control) [16]: 75; Plant response rating, Ducksalad (0 to 100 scale, 0 is no effect, 100 is complete control) [17]: 80; Plant response rating, Rice (0 to 100 scale, 0 is no effect, 100 is complete control) (rice (Oryza sativa)): 35; Plant response rating, Sedge, Umbrella (0 to 100 scale, 0 is no effect, 100 is complete control) [18]: 85 |
